From PubChem BioAssay (NCI)
Values joined by “and” are separate entries in the source; they are usually repeats but may differ in a detail not shown here. Equal values may be shown once.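 Growth conditions: 96-well plates. Treatment: test compound, 48 hours, 5 concentrations. Analysis: linear interpolation between bracketing concentrations; unreached endpoints set to highest concentration. The concentration for 50% growth inhibition is given as GI50. The concentration for full growth arrest is given as TGI.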

Legend:
Assay in all cases: growth of human tumour cells (NCI), 48 h
[1] = tested on: BT-549 breast
[2] = tested on: HCC-2998 colon
[3] = tested on: HT29 colon
[4] = tested on: K-562 leukemia
[5] = tested on: M14 melanoma
[6] = tested on: MALME-3M melanoma
[7] = tested on: MDA-MB-435
[8] = tested on: NCI-H226 lung
[9] = tested on: U251 CNS
[10] = tested on: UACC-62 melanoma

Compound	GI50 [1]	TGI [1]	GI50 [2]	TGI [2]	GI50 [3]	TGI [3]	GI50 [4]	TGI [4]	GI50 [5]	TGI [5]	GI50 [6]	TGI [6]	GI50 [7]	TGI [7]	GI50 [8]	TGI [8]	GI50 [9]	TGI [9]	GI50 [10]	TGI [10]
O=C(Nc1ccc(Cl)cc1)c1cc2cc(F)ccc2cc1O	1.35 µM	5.12 µM	3.13 µM	> 100 µM	3.67 µM	40 µM	0.491 µM	> 100 µM	2.23 µM	> 100 µM	0.613 µM	4.11 µM	1.96 µM	8.8 µM	2.5 µM	7.99 µM	1.1 µM	6.54 µM	0.622 µM	23.6 µM
C[C@@H](Oc1cc(NS(=O)(=O)N2CCC2)nc(SCc2cccc(F)c2F)n1)[C@@H](O)CO	> 100 µM	> 100 µM	> 100 µM	> 100 µM	> 100 µM	> 100 µM	> 100 µM	> 100 µM	> 100 µM	> 100 µM	> 100 µM	> 100 µM	> 100 µM	> 100 µM	> 100 µM	> 100 µM	> 100 µM	> 100 µM	> 100 µM	> 100 µM
O=C1/C(=C/c2ccccc2Br)COc2ccc(O)c(O)c21	2.17 µM	5.95 µM	1.83 µM	3.4 µM	3.37 µM	10.4 µM	0.339 µM	> 100 µM	1.53 µM	4.06 µM	1.28 µM	3.27 µM	1.14 µM	4.91 µM	2.75 µM	8.19 µM	1.09 µM	2.33 µM	1.55 µM	3.29 µM
Cc1cccc2c1NC(=O)[C@@]21[C@H](C(=O)c2ccccc2)[C@]2(C(=O)Nc3ccccc32)[C@H]2CCCN21	27.4 µM	> 100 µM	49.5 µM	> 100 µM	37.3 µM	> 100 µM	33.1 µM	> 100 µM	43.3 µM	> 100 µM	31.4 µM	> 100 µM	94.7 µM	> 100 µM	27.1 µM	> 100 µM	28 µM	92 µM	12.5 µM	> 100 µM
O=c1ccccc(-c2ccc(-c3ccco3)cc2)c1O	1.65 µM	28 µM	0.691 µM	33.2 µM	1.7 µM	65.6 µM	0.603 µM	> 100 µM	0.665 µM	6.11 µM	2.77 µM	26.3 µM	1.85 µM	> 100 µM	2.31 µM	23 µM	0.87 µM	12.7 µM	0.588 µM	4.14 µM
O=C1CCC2=C3C4CCCCC4C(=O)C4CCCC(OC2C1)C34 (centres undefined)	1.4 µM	6.03 µM	3.41 µM	15.7 µM	8.28 µM	> 100 µM	0.493 µM	–	1.28 µM	4.23 µM	0.418 µM	1.98 µM	0.516 µM	2.08 µM	> 41.2 µM	> 78.9 µM	0.428 µM	> 20.2 µM	1.69 µM	4.32 µM
COc1cc2c(Nc3ccc(Br)cc3F)ncnc2cc1OCC1CCN(C)CC1	7.38 µM and > 10 µM	19.7 µM and > 10 µM	7.38 µM and > 10 µM	21.6 µM and > 10 µM	2.38 µM and 3.39 µM	10.8 µM and > 10 µM	0.436 µM and 0.651 µM	11.8 µM and > 10 µM	1.91 µM and 1.74 µM	3.62 µM and 3.66 µM	1.83 µM and 4.47 µM	3.85 µM and > 10 µM	1.74 µM and 3.81 µM	3.61 µM and > 10 µM	5.23 µM and > 10 µM	18.8 µM and > 10 µM	4.81 µM and 7.68 µM	17.1 µM and > 10 µM	1.8 µM and 2.79 µM	4.03 µM and > 10 µM
COc1c(B(O)O)cccc1-c1nc2c(F)cc3[nH]ncc3c2c2c1CCCC2	0.116 µM	3.02 µM	2.22 µM	8.91 µM	3.07 µM	> 44 µM	2.14 µM	> 100 µM	3.8 µM	15.5 µM	3.71 µM	9.11 µM	0.287 µM	2.06 µM	1.44 µM	22.7 µM	1.77 µM	> 44.9 µM	1.14 µM	9.53 µM
